Experimental data reported in article PMC12186298, “Phase 1 clinical trial of eneboparatide, a novel PTH receptor 1 agonist” (Endocrine Connections, 2025).
Peptide text beside a SMILES is read from it.

Experiments:
[1] = system: healthy subjects; assay: Safety and tolerability, adverse events, Part B MAD
Protocol: A total of five sequential cohorts were included in Part B with ten subjects in each cohort (eight receiving eneboparatide at a dose of 10, 20, 40, 60 and 80 μg/day, respectively, and two receiving placebo in a randomized and double-blind manner). […] They were resident in the study unit until day 17 and FU evaluation was performed on day 21–25.
(§1) Safety and tolerability assessments consisted of adverse events (AEs), clinical laboratory (clinical chemistry, haematology, coagulation, and urinalysis), vital signs (blood pressure, pulse rate, respiratory rate, and temperature), 12-lead ECG (Part B), 24 h continuous cardiac monitoring (telemetry; Part A), body weight, physical examination, injection site reaction, and measurement of antidrug antibodies (ADA) in plasma (Part B).

[2] = system: healthy subjects; assay: Antidrug antibodies (ADA) in plasma, Part B; type: in vivo, human; conditions: following 14 days of administration
Protocol: as §1

[3] = Part B, 10 μg/day sc 14 days, n = 8
[4] = Part B, 20 μg/day sc 14 days, n = 8
[5] = Part B, 40 μg/day sc 14 days, n = 8
[6] = Part B, 60 μg/day sc 14 days, n = 8
[7] = Part B, 80 μg/day sc 14 days, n = 8
[8] = Part B, total eneboparatide, n = 40

CC[C@H](C)[C@H](NC(=O)[C@H](CCC(=O)O)NC(=O)[C@H](C)NC(=O)[C@@H](NC(=O)[C@H](Cc1c[nH]cn1)NC(=O)[C@@H](NC(=O)[C@H](CCC(=O)O)NC(=O)[C@H](C)NC(=O)[C@@H](NC(=O)[C@H](CC(C)C)NC(=O)[C@H](CCCCN)NC(=O)[C@H](Cc1c[nH]cn1)NC(=O)[C@H](CC(C)C)NC(=O)[C@H](Cc1ccccc1)NC(=O)[C@H](C)NC(=O)[C@H](CCCNC(=N)N)NC(=O)[C@H](CCCNC(=N)N)NC(=O)[C@H](CCCNC(=N)N)NC(=O)[C@H](C)NC(=O)[C@H](CC(=O)O)NC(=O)[C@H](CCC(N)=O)NC(=O)[C@@H](NC(=O)[C@H](Cc1c[nH]c2ccccc12)NC(=O)[C@H](CCCCN)NC(=O)[C@H](C)NC(=O)[C@H](CCCNC(=N)N)NC(=O)[C@H](CCC(N)=O)NC(=O)[C@H](Cc1c[nH]cn1)NC(=O)[C@H](CCSC)NC(=O)[C@H](CC(C)C)NC(=O)[C@H](CCC(N)=O)NC(=O)[C@@H](NC(=O)[C@H](CCC(=O)O)NC(=O)[C@H](C)NC(=O)[C@@H](NC(=O)[C@H](C)N)C(C)C)[C@@H](C)CC)[C@@H](C)CC)[C@@H](C)CC)[C@@H](C)CC)[C@@H](C)O)C(=O)O [eneboparatide] (H-AVAEIQLMHQRAKWIQDARRRAFLHKLIAEIHTAEI-OH; N-terminus and C-terminus assumed)
Abdominal pain, subjects with TEAE [1, 3]: 0
Application site irritation, subjects with TEAE [1, 3]: 0
Catheter site haematoma, subjects with TEAE [1, 3]: 3
Catheter site pain, subjects with TEAE [1, 3]: 1
Decreased appetite, subjects with TEAE [1, 3]: 0
Diarrhoea, subjects with TEAE [1, 3]: 0
Dizziness, subjects with TEAE [1, 3]: 0
Dry skin, subjects with TEAE [1, 3]: 0
Dyspepsia, subjects with TEAE [1, 3]: 0
Fatigue, subjects with TEAE [1, 3]: 2
Flatulence, subjects with TEAE [1, 3]: 1
Headache, subjects with TEAE [1, 3]: 1
Injection site erythema, subjects with TEAE [1, 3]: 0
Injection site haematoma, subjects with TEAE [1, 3]: 3
Injection site pain, subjects with TEAE [1, 3]: 1
Injection site pruritus, subjects with TEAE [1, 3]: 0
Injection site tenderness, subjects with TEAE [1, 3]: 0
Insomnia, subjects with TEAE [1, 3]: 0
Muscle spasms, subjects with TEAE [1, 3]: 0
Myalgia, subjects with TEAE [1, 3]: 1
Nausea, subjects with TEAE [1, 3]: 0
Somnolence, subjects with TEAE [1, 3]: 1
Vomiting, subjects with TEAE [1, 3]: 0
Abdominal pain, subjects with TEAE [1, 4]: 0
Application site irritation, subjects with TEAE [1, 4]: 3
Catheter site haematoma, subjects with TEAE [1, 4]: 0
Catheter site pain, subjects with TEAE [1, 4]: 0
Decreased appetite, subjects with TEAE [1, 4]: 0
Diarrhoea, subjects with TEAE [1, 4]: 1
Dizziness, subjects with TEAE [1, 4]: 1
Dry skin, subjects with TEAE [1, 4]: 2
Dyspepsia, subjects with TEAE [1, 4]: 1
Fatigue, subjects with TEAE [1, 4]: 0
Flatulence, subjects with TEAE [1, 4]: 1
Headache, subjects with TEAE [1, 4]: 1
Injection site erythema, subjects with TEAE [1, 4]: 1
Injection site haematoma, subjects with TEAE [1, 4]: 3
Injection site pain, subjects with TEAE [1, 4]: 0
Injection site pruritus, subjects with TEAE [1, 4]: 2
Injection site tenderness, subjects with TEAE [1, 4]: 0
Insomnia, subjects with TEAE [1, 4]: 1
Muscle spasms, subjects with TEAE [1, 4]: 0
Myalgia, subjects with TEAE [1, 4]: 0
Nausea, subjects with TEAE [1, 4]: 2
Somnolence, subjects with TEAE [1, 4]: 0
Vomiting, subjects with TEAE [1, 4]: 0
Abdominal pain, subjects with TEAE [1, 5]: 1
Application site irritation, subjects with TEAE [1, 5]: 0
Catheter site haematoma, subjects with TEAE [1, 5]: 1
Catheter site pain, subjects with TEAE [1, 5]: 4
Decreased appetite, subjects with TEAE [1, 5]: 1
Diarrhoea, subjects with TEAE [1, 5]: 2
Dizziness, subjects with TEAE [1, 5]: 0
Dry skin, subjects with TEAE [1, 5]: 0
Dyspepsia, subjects with TEAE [1, 5]: 2
Fatigue, subjects with TEAE [1, 5]: 0
Flatulence, subjects with TEAE [1, 5]: 1
Headache, subjects with TEAE [1, 5]: 3
Injection site erythema, subjects with TEAE [1, 5]: 4
Injection site haematoma, subjects with TEAE [1, 5]: 5
Injection site pain, subjects with TEAE [1, 5]: 0
Injection site pruritus, subjects with TEAE [1, 5]: 3
Injection site tenderness, subjects with TEAE [1, 5]: 0
Insomnia, subjects with TEAE [1, 5]: 1
Muscle spasms, subjects with TEAE [1, 5]: 2
Myalgia, subjects with TEAE [1, 5]: 4
Nausea, subjects with TEAE [1, 5]: 1
Somnolence, subjects with TEAE [1, 5]: 3
Vomiting, subjects with TEAE [1, 5]: 0
Abdominal pain, subjects with TEAE [1, 6]: 1
Application site irritation, subjects with TEAE [1, 6]: 0
Catheter site haematoma, subjects with TEAE [1, 6]: 0
Catheter site pain, subjects with TEAE [1, 6]: 0
Decreased appetite, subjects with TEAE [1, 6]: 2
Diarrhoea, subjects with TEAE [1, 6]: 0
Dizziness, subjects with TEAE [1, 6]: 1
Dry skin, subjects with TEAE [1, 6]: 0
Dyspepsia, subjects with TEAE [1, 6]: 2
Fatigue, subjects with TEAE [1, 6]: 1
Flatulence, subjects with TEAE [1, 6]: 1
Headache, subjects with TEAE [1, 6]: 4
Injection site erythema, subjects with TEAE [1, 6]: 3
Injection site haematoma, subjects with TEAE [1, 6]: 3
Injection site pain, subjects with TEAE [1, 6]: 2
Injection site pruritus, subjects with TEAE [1, 6]: 0
Injection site tenderness, subjects with TEAE [1, 6]: 2
Insomnia, subjects with TEAE [1, 6]: 1
Muscle spasms, subjects with TEAE [1, 6]: 0
Myalgia, subjects with TEAE [1, 6]: 0
Nausea, subjects with TEAE [1, 6]: 5
Somnolence, subjects with TEAE [1, 6]: 3
Vomiting, subjects with TEAE [1, 6]: 3
subjects with transient hypercalcaemia ([1]; Part B, 80 μg/d, well-tolerated, resolved spontaneously after day 14): six of the eight
Abdominal pain, subjects with TEAE [1, 7]: 0
Application site irritation, subjects with TEAE [1, 7]: 0
Catheter site haematoma, subjects with TEAE [1, 7]: 1
Catheter site pain, subjects with TEAE [1, 7]: 1
Decreased appetite, subjects with TEAE [1, 7]: 0
Diarrhoea, subjects with TEAE [1, 7]: 0
Dizziness, subjects with TEAE [1, 7]: 1
Dry skin, subjects with TEAE [1, 7]: 0
Dyspepsia, subjects with TEAE [1, 7]: 0
Fatigue, subjects with TEAE [1, 7]: 0
Flatulence, subjects with TEAE [1, 7]: 0
Headache, subjects with TEAE [1, 7]: 1
Injection site erythema, subjects with TEAE [1, 7]: 2
Injection site haematoma, subjects with TEAE [1, 7]: 3
Injection site pain, subjects with TEAE [1, 7]: 0
Injection site pruritus, subjects with TEAE [1, 7]: 1
Injection site tenderness, subjects with TEAE [1, 7]: 1
Insomnia, subjects with TEAE [1, 7]: 0
Muscle spasms, subjects with TEAE [1, 7]: 0
Myalgia, subjects with TEAE [1, 7]: 0
Nausea, subjects with TEAE [1, 7]: 4
Somnolence, subjects with TEAE [1, 7]: 2
Vomiting, subjects with TEAE [1, 7]: 1
Abdominal pain, subjects with TEAE [1, 8]: 2 (5) n (%)
Application site irritation, subjects with TEAE [1, 8]: 3 (7.5) n (%)
Catheter site haematoma, subjects with TEAE [1, 8]: 5 (12.5) n (%)
Catheter site pain, subjects with TEAE [1, 8]: 6 (15) n (%)
Decreased appetite, subjects with TEAE [1, 8]: 3 (7.5) n (%)
Diarrhoea, subjects with TEAE [1, 8]: 3 (7.5) n (%)
Dizziness, subjects with TEAE [1, 8]: 3 (7.5) n (%)
Dry skin, subjects with TEAE [1, 8]: 2 (5) n (%)
Dyspepsia, subjects with TEAE [1, 8]: 5 (12.5) n (%)
Fatigue, subjects with TEAE [1, 8]: 3 (7.5) n (%)
Flatulence, subjects with TEAE [1, 8]: 4 (10) n (%)
Headache, subjects with TEAE [1, 8]: 10 (25) n (%)
Injection site haematoma, subjects with TEAE [1, 8]: 17 (42.5) n (%)
Injection site pain, subjects with TEAE [1, 8]: 3 (7.5) n (%)
Injection site pruritus, subjects with TEAE [1, 8]: 6 (15) n (%)
Injection site tenderness, subjects with TEAE [1, 8]: 3 (7.5) n (%)
Insomnia, subjects with TEAE [1, 8]: 3 (7.5) n (%)
Muscle spasms, subjects with TEAE [1, 8]: 2 (5) n (%)
Myalgia, subjects with TEAE [1, 8]: 5 (12.5) n (%)
Nausea, subjects with TEAE [1, 8]: 12 (30) n (%)
Somnolence, subjects with TEAE [1, 8]: 9 (22.5) n (%)
Vomiting, subjects with TEAE [1, 8]: 4 (10) n (%)
telemetry (Part A) or ECG (Part B), blood pressure, heart rate, respiratory rate ([1]; Parts A and B): No changes of clinical relevance
serious or severe AEs ([1]; Parts A and B: single up to 120 μg, multiple up to 80 μg/day for 14 days): No serious or severe AEs were reported
vomiting (mild/moderate AE associated with hypercalcaemia), subjects ([1]; highest doses tested): four out of 40
anti-eneboparatide antibodies [2]: no anti-eneboparatide antibodies detected
